Some test systems named below: EKVX; SN12C; SK-MEL-28; SK-MEL-2; HT-29; OVCAR-8; SW-620; A549; BT-549; ACHN; RXF 393; HL-60; OVCAR-5; MDA-MB-231; HOP-62; UACC-257; T47D; RPMI-8226; SK-OV-3; SNB-75.
Assay in all cases: NCI-60 cell line screen, 48 h

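Following 48 hours of exposure in 96-well plates, responses at five concentrations were used to interpolate endpoints linearly. Abbreviation: GI50, concentration required for 50% inhibition of growth.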 Activity calls are given as the source filed them. Cut-off read from the data, not from the text of the source: active = GI50 up to about 1.1 µM and inactive = higher.

With `Cc1cc(O)c(C(C)C)cc1NC(=O)Nc1cccc2ccccc12`, the GI50 with EKVX was 14.7 µM (inactive); with SN12C, 16.5 µM (inactive); with SK-MEL-28, 23.2 µM (inactive); with SK-MEL-2, 15.3 µM (inactive); in the experiment with HT-29 it was 17.5 µM (inactive); in the experiment with OVCAR-8, 30.8 µM (inactive). The GI50 is 27.9 µM (inactive) in the experiment with SW-620; 17.5 µM (inactive) in the experiment with A549; 17.2 µM (inactive) with BT-549; 14.6 µM (inactive) in the experiment on ACHN; 14.2 µM (inactive) with RXF 393; 23.8 µM (inactive) with HL-60. Moreover, the GI50 in the experiment on OVCAR-5 was 17.8 µM (inactive); with MDA-MB-231 it was 17.7 µM (inactive); in the experiment with HOP-62 it was 16.4 µM (inactive); with UACC-257 it was 17.5 µM (inactive); in the experiment on T47D, 13.2 µM (inactive).

Regarding `COc1cc2c(cc1OC)C(=O)N(c1ccc(OCCN3CCCC3)cc1)C2=O`, the GI50 in the experiment on EKVX, in the experiment with SN12C, in the experiment on SK-MEL-28, in the experiment on SK-MEL-2, in the experiment with HT-29 and in the experiment with OVCAR-8 was > 100 µM (inactive) throughout. The GI50 in the experiment with SW-620, in the experiment with A549, in the experiment on BT-549, in the experiment with ACHN, with RPMI-8226 and with RXF 393 was > 100 µM (inactive) in each case. Also, the GI50 with HL-60, in the experiment on SK-OV-3, with OVCAR-5, in the experiment on MDA-MB-231, with HOP-62 and with UACC-257 was > 100 µM (inactive) in each case. In the experiment on T47D, the GI50 was > 100 µM (inactive).

For `C=CCN1CC2CN=NC2(C#N)C1` (stereo not given), the GI50 in the experiment with EKVX, with SN12C, in the experiment with SK-MEL-28, in the experiment on SK-MEL-2, with HT-29 and in the experiment with OVCAR-8 was > 100 µM (inactive) each time. Further, the GI50 in the experiment on SW-620, in the experiment on A549, in the experiment on BT-549, in the experiment on ACHN, in the experiment on RXF 393 and in the experiment with HL-60 was > 100 µM (inactive) in each case. Moreover, the GI50 in the experiment on OVCAR-5, with MDA-MB-231, in the experiment with HOP-62, in the experiment with UACC-257, in the experiment with SNB-75 and with T47D was > 100 µM (inactive) throughout.

For `CCN(CC)CCNc1ccc2ncn3c4c(OC)cccc4c(=O)c1c23`, the GI50 with EKVX is 4.15 µM (inactive); in the experiment on SN12C, 2.93 µM (inactive); in the experiment on SK-MEL-28, 6.47 µM (inactive); in the experiment with HT-29, 4.04 µM (inactive); in the experiment with OVCAR-8, 6.38 µM (inactive); in the experiment with SW-620, 1.08 µM (active). Moreover, the GI50 in the experiment with A549 is 4.12 µM (inactive); in the experiment with BT-549, > 10 µM (inactive); in the experiment on ACHN, 3.38 µM (inactive); in the experiment with RXF 393 it was 2.45 µM (inactive); in the experiment on SK-OV-3, 10.9 µM (inactive); in the experiment on MDA-MB-231 it was 7.55 µM (inactive). In addition, the GI50 was 6.67 µM (inactive) in the experiment with HOP-62, 21.1 µM (inactive) in the experiment on UACC-257, 11.3 µM (inactive) with SNB-75 and 7.66 µM (inactive) in the experiment on T47D.
